Tested on: SK-OV-3 multi-cell spheroids, viability
Test: Anticancer human tumor SK-OV-3 cell line growth inhibition [IpAb];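 on viability, T/C: viability read after seven days of drug exposure; percent of DMSO vehicle control luminescence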
Details: for IC50: curve of first compound; for viability, T/C: stronger effect = lower value; active means viability on the fitted dose curve at most 10% of control; inactive means the rest
Procedure, shortened: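 Combinations with ipatasertib or abemaciclib were tested on tumour spheroids holding HUVEC (25%) and MSC (15%) alongside 60% malignant cells. Top concentration was at or near clinical Cmax (10 microM if undefined), descending in half-log steps.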

[1] = second compound 0.1 µM, first compound 0.0316 µM
[2] = second compound 0.1 µM, first compound 0.1 µM
[3] = second compound 0.1 µM, first compound 0.316 µM
[4] = second compound 0.1 µM, first compound 1 µM
[5] = second compound 0.1 µM, first compound 3.16 µM
[6] = second compound 0.1 µM, first compound 10 µM
[7] = second compound 0.316 µM, first compound 0.0316 µM
[8] = second compound 0.316 µM, first compound 0.1 µM
[9] = second compound 0.316 µM, first compound 0.316 µM
[10] = second compound 0.316 µM, first compound 1 µM
[11] = second compound 0.316 µM, first compound 3.16 µM
[12] = second compound 0.316 µM, first compound 10 µM
[13] = second compound 1 µM, first compound 0.0316 µM
[14] = second compound 1 µM, first compound 0.1 µM
[15] = second compound 1 µM, first compound 0.316 µM
[16] = second compound 1 µM, first compound 1 µM
[17] = second compound 1 µM, first compound 3.16 µM
[18] = second compound 1 µM, first compound 10 µM
[19] = second compound 3.16 µM, first compound 0.0316 µM
[20] = second compound 3.16 µM, first compound 0.1 µM
[21] = second compound 3.16 µM, first compound 0.316 µM
[22] = second compound 3.16 µM, first compound 1 µM
[23] = second compound 3.16 µM, first compound 3.16 µM
[24] = second compound 3.16 µM, first compound 10 µM
[25] = second compound 10 µM, first compound 0.0316 µM
[26] = second compound 10 µM, first compound 0.1 µM
[27] = second compound 10 µM, first compound 0.316 µM
[28] = second compound 10 µM, first compound 1 µM
[29] = second compound 10 µM, first compound 3.16 µM
[30] = second compound 10 µM, first compound 10 µM
[31] = second compound 0.1 µM, first compound 0.00949 µM
[32] = second compound 0.1 µM, first compound 0.03 µM
[33] = second compound 0.1 µM, first compound 0.0949 µM
[34] = second compound 0.1 µM, first compound 0.3 µM
[35] = second compound 0.316 µM, first compound 0.00949 µM
[36] = second compound 0.316 µM, first compound 0.03 µM
[37] = second compound 0.316 µM, first compound 0.0949 µM
[38] = second compound 0.316 µM, first compound 0.3 µM
[39] = second compound 1 µM, first compound 0.00949 µM
[40] = second compound 1 µM, first compound 0.03 µM
[41] = second compound 1 µM, first compound 0.0949 µM
[42] = second compound 1 µM, first compound 0.3 µM
[43] = second compound 3.16 µM, first compound 0.00949 µM
[44] = second compound 3.16 µM, first compound 0.03 µM
[45] = second compound 3.16 µM, first compound 0.0949 µM
[46] = second compound 3.16 µM, first compound 0.3 µM
[47] = second compound 10 µM, first compound 0.00949 µM
[48] = second compound 10 µM, first compound 0.03 µM
[49] = second compound 10 µM, first compound 0.0949 µM
[50] = second compound 10 µM, first compound 0.3 µM

C=CC(=O)N1CCN(c2nc(=O)n(-c3c(C)ccnc3C(C)C)c3nc(-c4c(O)cccc4F)c(F)cc23)C(C)C1 (stereo not given) + CC(C)NCC(C(=O)N1CCN(c2ncnc3c2C(C)CC3O)CC1)c1ccc(Cl)cc1
< 31.6 nM: IC50 (second compound 0.316 µM) | IC50 (second compound 1 µM) | IC50 (second compound 3.16 µM) | IC50 (second compound 10 µM)
active: viability, T/C [25] 9.96% | viability, T/C [26] 10.9% | viability, T/C [27] 10.4% | viability, T/C [28] 10.8% | viability, T/C [29] 10.9% | viability, T/C [30] 6.35%
7190 nM: IC50 (second compound 0.1 µM)
inactive: viability, T/C [1] 75.9% | viability, T/C [2] 80.2% | viability, T/C [3] 77.7% | viability, T/C [4] 76.3% | viability, T/C [5] 72.7% | viability, T/C [6] 41% | viability, T/C [7] 35.8% | viability, T/C [8] 39.4% | viability, T/C [9] 39.6% | viability, T/C [10] 38.7% | viability, T/C [11] 39.5% | viability, T/C [12] 26.2% | viability, T/C [13] 21.1% | viability, T/C [14] 19.1% | viability, T/C [15] 21.4% | viability, T/C [16] 23.8% | viability, T/C [17] 24.6% | viability, T/C [18] 16.9% | viability, T/C [19] 14.8% | viability, T/C [20] 17.1% | viability, T/C [21] 16.4% | viability, T/C [22] 18.2% | viability, T/C [23] 17% | viability, T/C [24] 11.2%

CC(=O)c1c(C)c2cnc(Nc3ccc(N4CCNCC4)cn3)nc2n(C2CCCC2)c1=O + CC(C)NCC(C(=O)N1CCN(c2ncnc3c2C(C)CC3O)CC1)c1ccc(Cl)cc1
active: viability, T/C (second compound 10 µM, first compound 0.000949 µM) 9.94% | viability, T/C (second compound 10 µM, first compound 0.003 µM) 9.77% | viability, T/C [47] 8.83% | viability, T/C [48] 8.26% | viability, T/C [49] 10.6% | viability, T/C [50] 10.5%
< 0.949 nM: IC50 (second compound 0.316 µM) | IC50 (second compound 1 µM) | IC50 (second compound 3.16 µM) | IC50 (second compound 10 µM)
9.88 nM: IC50 (second compound 0.1 µM)
inactive: viability, T/C (second compound 0.1 µM, first compound 0.000949 µM) 70.5% | viability, T/C (second compound 0.1 µM, first compound 0.003 µM) 62.3% | viability, T/C [31] 50.6% | viability, T/C [32] 40.2% | viability, T/C [33] 35.8% | viability, T/C [34] 34.2% | viability, T/C (second compound 0.316 µM, first compound 0.000949 µM) 36.3% | viability, T/C (second compound 0.316 µM, first compound 0.003 µM) 32.9% | viability, T/C [35] 28% | viability, T/C [36] 25.6% | viability, T/C [37] 23.9% | viability, T/C [38] 26.2% | viability, T/C (second compound 1 µM, first compound 0.000949 µM) 20.3% | viability, T/C (second compound 1 µM, first compound 0.003 µM) 18.3% | viability, T/C [39] 17.6% | viability, T/C [40] 14.7% | viability, T/C [41] 15.9% | viability, T/C [42] 18.5% | viability, T/C (second compound 3.16 µM, first compound 0.000949 µM) 16.5% | viability, T/C (second compound 3.16 µM, first compound 0.003 µM) 14.7% | viability, T/C [43] 14.1% | viability, T/C [44] 15.6% | viability, T/C [45] 13.4% | viability, T/C [46] 13.5%

CC(C)(C)c1cnc(CSc2cnc(NC(=O)C3CCNCC3)s2)o1 + CC(C)NCC(C(=O)N1CCN(c2ncnc3c2C(C)CC3O)CC1)c1ccc(Cl)cc1
active: viability, T/C (second compound 0.1 µM, first compound 0.949 µM) 0.65% | viability, T/C (second compound 0.1 µM, first compound 3 µM) 0.75% | viability, T/C (second compound 0.316 µM, first compound 0.949 µM) 0.41% | viability, T/C (second compound 0.316 µM, first compound 3 µM) 0.65% | viability, T/C (second compound 1 µM, first compound 0.949 µM) 0.3% | viability, T/C (second compound 1 µM, first compound 3 µM) 0.62% | viability, T/C (second compound 3.16 µM, first compound 0.949 µM) 0.58% | viability, T/C (second compound 3.16 µM, first compound 3 µM) 0.66% | viability, T/C [49] 14.2% | viability, T/C [50] 2.96% | viability, T/C (second compound 10 µM, first compound 0.949 µM) 0.36% | viability, T/C (second compound 10 µM, first compound 3 µM) 0.65%
118 nM: IC50 (second compound 0.316 µM)
168 nM: IC50 (second compound 0.1 µM)
< 9.49 nM: IC50 (second compound 1 µM) | IC50 (second compound 3.16 µM) | IC50 (second compound 10 µM)
inactive: viability, T/C [31] 74.8% | viability, T/C [32] 92% | viability, T/C [33] 89.1% | viability, T/C [34] 14.5% | viability, T/C [35] 49.5% | viability, T/C [36] 50.8% | viability, T/C [37] 73.7% | viability, T/C [38] 17.3% | viability, T/C [39] 22.3% | viability, T/C [40] 30.2% | viability, T/C [41] 41.9% | viability, T/C [42] 11.7% | viability, T/C [43] 18% | viability, T/C [44] 22.6% | viability, T/C [45] 28.4% | viability, T/C [46] 9.86% | viability, T/C [47] 11.3% | viability, T/C [48] 11.4%

Cn1nccc1Nc1nccc(-c2ccn(C(CO)c3ccc(Cl)c(F)c3)c(=O)c2)n1 (stereo not given) + CC(C)NCC(C(=O)N1CCN(c2ncnc3c2C(C)CC3O)CC1)c1ccc(Cl)cc1
inactive: viability, T/C [1] 71.3% | viability, T/C [2] 68% | viability, T/C [3] 67.6% | viability, T/C [4] 68.3% | viability, T/C [5] 62.3% | viability, T/C [6] 31.9% | viability, T/C [7] 36.5% | viability, T/C [8] 36% | viability, T/C [9] 37.7% | viability, T/C [10] 36.9% | viability, T/C [11] 29.7% | viability, T/C [12] 16.6% | viability, T/C [13] 18.4% | viability, T/C [14] 18.7% | viability, T/C [15] 17.6% | viability, T/C [16] 16.8% | viability, T/C [17] 15.2% | viability, T/C [18] 7.24% | viability, T/C [19] 15.6% | viability, T/C [20] 12.6% | viability, T/C [21] 10.6% | viability, T/C [25] 9.59%
active: viability, T/C [22] 9.52% | viability, T/C [23] 8.01% | viability, T/C [24] 4.41% | viability, T/C [26] 8.62% | viability, T/C [27] 7.34% | viability, T/C [28] 7.5% | viability, T/C [29] 6.98% | viability, T/C [30] 2.15%
5040 nM: IC50 (second compound 0.1 µM)
< 31.6 nM: IC50 (second compound 0.316 µM) | IC50 (second compound 1 µM) | IC50 (second compound 3.16 µM) | IC50 (second compound 10 µM)
